Entries after “also recorded” stand apart in the source; their conditions may differ.
Legend:
GSPT1 = target: T1, GSPT1 (Homo sapiens, UniProt P15170); assay: GSPT1 protein levels after treatment; format: cell-based; settings: various concentrations
T1 construct: endogenously expressing GSPT1 with HiBiT fusion tag via CRISPR; endogenous in cells; host or cells: HEK293T.114

A375 cells = assay: Cellular confluence of A375 cells by live cell imaging; format: cell-based; settings: end of the 7-day experiment
BRAF V600E [1] = target: T2, BRAF V600E (Homo sapiens, UniProt P15056, V600E); assay: Western blot of BRAF V600E levels in A375 cells; format: cell-based; set-up: host or cells: A375
T2 sequence (P15056 whole entry V600E): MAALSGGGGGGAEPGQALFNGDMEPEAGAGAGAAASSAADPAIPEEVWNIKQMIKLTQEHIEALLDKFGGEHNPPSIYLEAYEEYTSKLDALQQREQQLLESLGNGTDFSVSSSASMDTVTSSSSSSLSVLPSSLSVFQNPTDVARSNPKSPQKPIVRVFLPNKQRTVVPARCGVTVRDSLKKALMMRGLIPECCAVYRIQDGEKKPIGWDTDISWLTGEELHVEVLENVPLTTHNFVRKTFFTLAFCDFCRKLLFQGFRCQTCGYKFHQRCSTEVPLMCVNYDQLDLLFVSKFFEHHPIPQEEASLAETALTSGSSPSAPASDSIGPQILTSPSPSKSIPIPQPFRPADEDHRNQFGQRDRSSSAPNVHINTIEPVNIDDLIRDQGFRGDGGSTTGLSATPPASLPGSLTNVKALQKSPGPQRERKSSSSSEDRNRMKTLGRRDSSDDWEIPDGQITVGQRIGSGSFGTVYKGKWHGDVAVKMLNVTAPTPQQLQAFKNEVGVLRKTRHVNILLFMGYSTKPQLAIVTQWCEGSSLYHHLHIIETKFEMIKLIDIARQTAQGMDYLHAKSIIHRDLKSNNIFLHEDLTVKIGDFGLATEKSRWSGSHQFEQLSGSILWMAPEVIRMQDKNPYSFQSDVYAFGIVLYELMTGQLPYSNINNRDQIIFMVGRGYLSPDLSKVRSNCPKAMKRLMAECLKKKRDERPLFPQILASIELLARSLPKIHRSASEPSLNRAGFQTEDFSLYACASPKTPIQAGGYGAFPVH

BRAF V600E [2] = target: T2, BRAF V600E; assay: Global proteomics profiling, A375 cells; format: cell-based; set-up: endogenous in cells; host or cells: A375; settings: 300 nM, 24 hours, compared to 300 nM dabrafenib treatment
Procedure: Each cell line was treated in duplicate with either DMSO or Compound 157 (final concentration 300 nM) for 24 hours in an incubator at 37° C. with 5% CO2. After the 24-hour incubation, cells were harvested, washed twice with PBS, and snap frozen in liquid nitrogen. Samples were re-suspended in lysis buffer [8 M urea, 50 mM HEPES (pH 8.5), 50 mM NaCl, 1× protease inhibitor cocktail] and lysed by sonication at 4° C. with 85% amplitude in a pulse setting with 30 seconds on and 30 seconds off for a total sonication time of 5 minutes. Lysates were centrifuged at maximum speed for 10 minutes at 4° C. and the supernatant collected, reduced for 1 hour at room temperature with 5 mM TCEP, and the cysteine residues were then alkylated with 15 mM iodoacetamide (room temperature, in dark, 30 minutes). Protein content was extracted by methanol-chloroform precipitation and subsequent ice-cold acetone washes. Protein pellets were resuspended in 8 M urea, 50 mM HEPES (pH 8.5) buffer and protein concentrations were measured by BCA assay. […]
For peptide tandem mass tag (TMT) labeling, 100 μg of peptides per sample was prepared at […] concentration in 200 mM HEPES (pH 8.5), 30% acetonitrile (ACN) and each the specific TMT reagent. […] TMT reporter ion intensities were quantified by extracting the signal-to-noise ratio for each. […]

[3] = Body weight change in the A375 xenograft study; format: in vivo, BALB/c nude mice; settings: all doses, PO, A375 tumor-bearing mice
Procedure: (§1) The efficacy study was conducted in female BALB/c nude mice bearing A375 tumors. Female BALB/c nude mice were inoculated subcutaneously in the right flank with A375 tumor cells (5×10^6) in 0.2 mL of PBS supplemented with Matrigel (at a 1:1 ratio) for tumor development. Tumor volume was measured twice weekly in two dimensions using calipers, and volume (mm^3) was calculated using the formula: V=0.5 a×b^2 where a and b are the long and short diameters of the tumor in mm, respectively. Once the tumors reached an average tumor volume of 246 mm^3 (16 days after implantation), the animals were divided randomly into groups of 6, stratified to result in about equal average tumor sizes in each treatment group and treatment began on Day 0.
(§2) All agents were administered to mice bearing A375 tumors orally (PO), daily (QD; encorafenib), twice a day (BID) or three times a day (TID) for Compound 157, for 21 or 35 days. encorafenib was dosed at 35 mg/kg and Compound 157 at 0.1, 0.3, 1, 3 or 10 mg/kg twice a day or 2 mg/kg three times a day. Compound 157 was formulated in 20% PEG400+80% (25% SBECD). Body weight and MTV were measured on a 2× weekly schedule and reported as Mean±SEM.

A375 tumors [4] = assay: In vivo efficacy in A375 xenograft tumors; set-up: species or system BALB/c nude mice; settings: mice
Procedure: as §1, §2

[5] = system: H1666 cells endogenously expressing the class III BRAF mutation G466V; assay: Cellular growth over time in H1666 cells; format: cell-based
A375 tumors [6] = assay: In vivo efficacy in A375 xenografts; set-up: species or system BALB/c nude mice

T1 sequence (P15170 whole entry, the tested form may be a part): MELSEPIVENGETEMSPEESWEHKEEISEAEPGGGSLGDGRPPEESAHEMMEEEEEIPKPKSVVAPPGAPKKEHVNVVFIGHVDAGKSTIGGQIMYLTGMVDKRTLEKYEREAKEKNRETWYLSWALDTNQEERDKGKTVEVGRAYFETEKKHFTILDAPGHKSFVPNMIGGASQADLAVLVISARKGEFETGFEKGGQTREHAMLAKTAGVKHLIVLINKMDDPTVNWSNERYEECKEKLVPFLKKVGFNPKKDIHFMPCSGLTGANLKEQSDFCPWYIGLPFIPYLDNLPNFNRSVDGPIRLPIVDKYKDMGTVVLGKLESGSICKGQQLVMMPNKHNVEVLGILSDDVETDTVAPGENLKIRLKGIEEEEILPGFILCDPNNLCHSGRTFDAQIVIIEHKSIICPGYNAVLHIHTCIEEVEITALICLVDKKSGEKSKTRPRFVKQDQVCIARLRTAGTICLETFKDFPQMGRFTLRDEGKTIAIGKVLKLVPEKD

Q: For CCN(C)S(=O)(=O)Nc1ccc(F)c(Oc2ccc3ncn([C@H]4COC5(CCN(C(=O)CC6(O)CCN(c7cc8c(cc7F)c(N7CCC(=O)NC7=O)nn8C)CC6)CC5)C4)c(=O)c3c2)c1C#N [Compound 157, (3R)-3-[6-[2-cyano-3-[[ethyl(methyl)sulfamoyl]amino]-6-fluorophenoxy]-4-oxoquinazolin-3-yl]-8-[2-[1-[3-(2,4-dioxo-1,3-diazinan-1-yl)-5-fluoro-1-methylindazol-6-yl]-4-hydroxypiperidin-4-yl]acetyl]-1-oxa-8-azaspiro[4.5]decane], which GSPT1 protein levels (GSPT1) is on record?
A: The GSPT1 protein levels was “steady”.

Q: What about the cellular confluence (A375 cells) of the same compound?
A: Its cellular confluence is about 20%.

Q: What about the “BRAF V600E levels” value (BRAF V600E [1]) of the same compound?
A: The value was “significantly decreased; also recorded: decrease in a dose dependent manner”.

Q: And the “BRAF^V600E protein remaining” value (BRAF V600E [2])?
A: The value was 27%.

Q: What about the “Mean body weight loss throughout the study” value [3] of the same compound?
A: The value was at most 3.5%.

Q: And the “Tumor growth compared to vehicle-treated tumors” value (A375 tumors [4]; 1 mg/kg PO BID)?
A: Its value is “potent tumor growth inhibition”.

Q: What about the “Tumor growth compared to vehicle-treated tumors” value (A375 tumors [4]; 2 mg/kg PO TID) of the same compound?
A: The value was “potent tumor growth inhibition”.

Q: And the “Tumor growth compared to vehicle-treated tumors” value (A375 tumors [4]; 3 mg/kg PO BID)?
A: The value was “potent tumor growth inhibition”.

Q: And the “Tumor growth compared to vehicle-treated tumors” value (A375 tumors [4]; 10 mg/kg PO BID)?
A: The value was “robust tumor growth regression”.

Q: And the cell growth inhibition ([5]; G466V)?
A: The cell growth inhibition was “effective”.

Q: And the confluency ([5]; over the course of 7 days)?
A: Its confluency is at most 30%.

Q: And the “cell growth, in combination with trametinib” value ([5]; with 1 nM trametinib)?
A: Its value is “failed to expand”.

Q: And the “efficacy compared with encorafenib” value (A375 tumors [6]; oral delivery)?
A: The value was “more efficacious than a clinically relevant dose of encorafenib”.

Q: And the tumor response (A375 tumors [6]; oral, 10 mg/kg BID)?
A: The tumor response was “profound tumor regressions”.

Reference: patent US12486253B2, “Therapeutics for the degradation of mutant BRAF” (C4 THERAPEUTICS, INC., priority 2021, dated 2025)
